Consider 1 molecule from US20260285898A1, “SAPONIN DERIVATIVES AS ADJUVANTS AND PHOTOAFFINITY PROBES” (ASOCIACIÓN CENTRO DE INVESTIGACIÓN COOPERATIVE EN …, priority 2023, published 2026).

This series can be described thus: Initial toxicity assessment in mice by median weight loss after injection. The settings on record: monitored after each injection (1st, 2nd and 3rd booster dose); s.c., saponin 20 μg/mouse with OVA 10 μg/mouse; FIG. 1. The method, then:
Groups of five mice (C57BL/6, female, 6-8 weeks old) were vaccinated subcutaneously three times […] (days 0, 14, and 28) with endotoxin-free OVA (EndoFit™ Ovalbumin, Invitrogen) (10 μg/mouse) in phosphate-buffered saline (PBS, 100 μL) either alone (no-adjuvant control group) or with the synthetic saponins (20 μg/mouse). To analyze the antibody responses over time, mice were bled via the submandibular vein at the indicated pre- (day −1) and post-vaccination timepoint (day 21), and by cardiac puncture at the experimental endpoint (day 35). Blood was collected in BD Microtainer® tubes (Clot Activator/SST™ Gel) and centrifuged at 7500 g for 10 min, after which serum was harvested and stored at −20° C. until further analysis.
As a standard initial overall assessment of the potential toxicity of the saponins, in addition to visual inspection for potential signs of discomfort, the weight loss of each group of mice was monitored before and after each immunization. The median percentage weight change at different timepoints post-injection was determined and analyzed.
Mouse weight loss was monitored after each injection (1st, 2nd and 3rd (booster dose)).

Molecules are shown by their SMILES.

As to `CC1OC(OC2C(OC(=O)C34CCC(C)(C)CC3C3=CCC5C6(C)CCC(OC7OC(C(=O)O)C(O)C(OC8OCC(O)C(O)C8O)C7OC7OC(CO)C(O)C(O)C7O)C(C)(C=O)C6CCC5(C)C3(C)CC4O)OC(CO)C(NC(=O)CCCCCNC(=O)c3ccc(C(=O)c4ccc(C(=O)NCCOCCOCCOCCOCCOCCNC(=O)CCCCC5SCC6NC(=O)NC65)cc4)cc3)C2O)C(O)C(O)C1OC1OCC(O)C(O)C1O` (stereo not shown) [BTS-25-BP], the “Mouse weight loss (toxicity)” value is “about 2%”.
